Results from ChEMBL document CHEMBL1151051, “Structure-based design of novel calcineurin (PP2B) inhibitors” (Bioorg Med Chem Lett, 1997).

Assay: Inhibition of Protein phosphatase 2B
Parameters: species or system Homo sapiens
Settings: read-out: Ki app
`O=C(CCCC1CCCCC1)OC[C@H]1C[C@@H]2O[C@H]1[C@H]1C(=O)OC(=O)[C@H]12` gave a Ki of 1 µM.
Molecule `O=C(CCCc1ccccc1)OC[C@H]1C[C@@H]2O[C@H]1[C@H]1C(=O)OC(=O)[C@H]12` has a Ki of 1.2 µM.
`O=C(Cc1ccccc1)OC[C@H]1C[C@@H]2O[C@H]1[C@H]1C(=O)OC(=O)[C@H]12` showed a Ki of 7.4 µM.
`O=C(CCCCc1ccccc1)OC[C@H]1C[C@@H]2O[C@H]1[C@H]1C(=O)OC(=O)[C@H]12` gave a Ki of 2.3 µM.
In the case of `O=C(OC[C@H]1C[C@@H]2O[C@H]1[C@H]1C(=O)OC(=O)[C@H]12)c1ccccc1`, the Ki is reported as 11 µM.
With `O=C1OC(=O)[C@@H]2[C@H]1[C@@H]1O[C@H]2C[C@@H]1COC(=O)[C@@H]1C[C@H]1c1ccccc1` the Ki was 0.5 µM.
`O=C(OC[C@H]1C[C@@H]2O[C@H]1[C@H]1C(=O)OC(=O)[C@H]12)c1cccc(Oc2ccccc2)c1` showed a Ki of 1.8 µM.
`O=C(Cc1c[nH]c2ccccc12)OC[C@H]1C[C@@H]2O[C@H]1[C@H]1C(=O)OC(=O)[C@H]12` showed a Ki of 2 µM.
Work on `O=C(CCc1ccccc1)OC[C@H]1C[C@@H]2O[C@H]1[C@H]1C(=O)OC(=O)[C@H]12` yielded a Ki of 3.7 µM.
For `O=C(OC[C@H]1C[C@@H]2O[C@H]1[C@H]1C(=O)OC(=O)[C@H]12)c1ccc(Oc2ccccc2)cc1`, the Ki was 1.4 µM.
In the case of `O=C(O)[C@@H]1[C@H](C(=O)O)[C@H]2CC[C@@H]1O2` [ENDOTHALL], the Ki is reported as 11.5 µM.

Assay: The compound was tested for the inhibition of Protein phosphatase-1 (PP1)
Settings: read-out: Ki app
`O=C1OC(=O)[C@@H]2[C@H]1[C@@H]1O[C@H]2C[C@@H]1COC(=O)[C@@H]1C[C@H]1c1ccccc1` showed a Ki of 4 µM.
With `O=C(O)[C@@H]1[C@H](C(=O)O)[C@H]2CC[C@@H]1O2` [ENDOTHALL] the Ki was 4 µM.
